Measured values published in patent EP3705117A1, “MELATONIN HAVING IMPROVED WATER SOLUBILITY, ITS PREPARATION AND USES THEREOF” (Tradichem Industrial Services, S.L., priority 2019, dated 2020).

Type: physicochemical
Settings: for melatonin available in the solution / solubilized: 7 min, 0.2 mg/mL
Experimental: The water solubility of non-compacted melatonin (starting material used for compaction in Example 1) and the solubility of the compacted melatonin prepared in Example 1 were compared.
Three samples of 10 mg each of non-compacted melatonin and three samples of 10 mg each of compacted melatonin were introduced in separate beakers and tap water at 22 °C was added to each beaker to a volume of 10, 25 or 50 ml (assays A, B and C, respectively). Each tested mixture was sonicated for 5 minutes and subsequently subjected to magnetic stirring at 200 rpm for 2 more minutes.

Structure (SMILES)	Solubility test, assay A (10 mg / 10 ml)	Solubility test, assay B (10 mg / 25 ml)	melatonin available in the solution / solubilized	dissolution rate compared with non-compacted melatonin (ocular inspection, in each of assays A, B and C (10 mg in 10, 25 or 50 ml water))	melatonin remained as solid, not dissolved (HPLC analysis, assay C, 10 mg in 50 ml tap water at 22 °C)
COc1ccc2[nH]cc(CCNC(C)=O)c2c1 [Compacted-melatonin, N-[2-(5-methoxy-1H-indol-3-yl)ethyl)acetamide]	(partially dissolved)	(partially dissolved)	100%	higher dissolution rate	–
COc1ccc2[nH]cc(CCNC(C)=O)c2c1 [Non-compacted melatonin, N-[2-(5-methoxy-1H-indol-3-yl)ethyl)acetamide]	(partially dissolved)	(partially dissolved)	79%	–	21%
